Measurements taken from US9737603B1, “Alcohol-based local anesthesia and associated use thereof” (priority 2014, dated 2017).
Each block holds one compound with its values, some of them ahead of it.

Tests used:
[1] = tested on: skin tissue; conditions: topical; cited from earlier work
[2] = Solution stability (precipitation of benzocaine); type: physicochemical; conditions: liquid embodiment, isopropyl alcohol 70-75% (v)
Source text: In a non-limiting exemplary embodiment, the alcohol-based topical anesthesia chemical composition 10 may be stored in a tightly sealed container at 25 C or a temperature range of 20 C to 40 C. Temperatures below 15 C may cause the benzocaine to precipitate.
However, beyond 16% (w/v) of benzocaine, the solution stability becomes an issue due to the precipitation of benzocaine; and menthol can be effectively utilized in the range 1% to 3% (w/v).

[3] = tested on: skin tissue; assay: Topical anesthesia / analgesia after application to skin; type: in vivo; conditions: 1% (w/v) menthol, preliminary work
Source text: The alcohol-based topical anesthesia chemical composition 10 also has a skin analgesic, menthol 1% (w/v).

SMILES: C[C@]12CCC(=O)C=C1CC[C@@H]1[C@@H]2[C@@H](O)C[C@@]2(C)[C@H]1CC[C@]2(O)C(=O)CO [Hydrocortisone]
analgesia (alternatives to menthol) [1]: does not provide immediate analgesia

benzocaine concentration beyond which solution stability becomes an issue due to precipitation of benzocaine [2]: > 16 % (w/v)
SMILES: CCOC(=O)c1ccc(N)cc1 [benzocaine]

SMILES: CC1CCC(C(C)C)C(O)C1 (stereo not drawn) [menthol]
counterirritant analgesic property [3]: safe yet effective
